Measurements published in patent publication US9809582B2, “Aminoester derivatives” (CHIESI FARMACEUTICI S.p.A., priority 2015, dated 2017).
Like-named read-outs stand apart in the source and are kept apart here.

Tests used:
Human M3 receptor = Human M3 receptor (Homo sapiens (Human), UniProt P20309); experiment: M3 receptor radioligand binding assay
Method: M3 Receptor Radioligand Binding Assay:
The assay is carried out in 96-well polypropylene plates in a volume of 250 μl. […] The final assay concentration of DMSO is 0.5% (v/v). The plates are sealed and incubated for 2 h at room temperature on an orbital shaker (slow speed). Membranes are harvested onto 96-well unifilter GF/C filter plates pre-treated with 0.5% polyethyleneimine (v/v), using a filter manifold, washed four times with […] of assay buffer. The plates are dried before addition of 50 μl of microscint-0, sealed then read in a Trilux Microbeta scintillation counter. IC50 values are determined from competition curves using a non-linear curve fitting program. Ki values are calculated from IC50 values by the Cheng and Prusoff equation.

Human recombinant PDE4B2 = Human recombinant PDE4B2 (Homo sapiens (Human), UniProt Q07343); experiment: PDE4B2 HTRF assay; format: biochemical
Sequence of Human recombinant PDE4B2 (Q07343 other isoform, or with tags, fused parts or gaps): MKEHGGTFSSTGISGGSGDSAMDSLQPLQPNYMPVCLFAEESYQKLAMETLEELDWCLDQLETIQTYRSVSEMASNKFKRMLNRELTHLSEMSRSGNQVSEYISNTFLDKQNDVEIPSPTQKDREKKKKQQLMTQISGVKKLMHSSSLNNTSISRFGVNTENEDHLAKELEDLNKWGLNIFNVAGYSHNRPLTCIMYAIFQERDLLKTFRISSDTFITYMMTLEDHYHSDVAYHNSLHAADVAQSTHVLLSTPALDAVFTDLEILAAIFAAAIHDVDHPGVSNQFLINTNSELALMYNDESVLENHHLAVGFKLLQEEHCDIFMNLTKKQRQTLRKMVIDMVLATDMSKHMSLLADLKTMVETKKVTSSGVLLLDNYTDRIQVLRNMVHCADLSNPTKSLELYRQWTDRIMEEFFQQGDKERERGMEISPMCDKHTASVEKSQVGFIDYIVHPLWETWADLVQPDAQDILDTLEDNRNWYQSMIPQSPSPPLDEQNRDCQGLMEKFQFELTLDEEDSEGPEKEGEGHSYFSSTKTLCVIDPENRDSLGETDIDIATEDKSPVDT
Method: PDE4B2 activity is detected using the LANCE Ultra cAMP homogeneous time resolved fluorescence resonance energy transfer (TR-FRET) assay from Perkin Elmer. The assay is based on the competition between the europium (Eu) chelate-labeled cAMP tracer and sample cAMP for binding sites on cAMP-specific monoclonal antibodies (mAb) labelled with the ULight™ dye. The assay is carried out in 384-well low volume plates in a volume of 10 μl. Human recombinant PDE4B2 (80 pM) is incubated for 2 h with 3 nM cAMP in buffer containing 1×HBSS, 5 mM HEPES, 3 mM MgCl2, 0.1% BSA, pH 7.4 with or without test compounds. The enzymatic reactions are efficiently stopped by the addition of 500 μM IBMX present in the combined Stop/Detection buffer containing europium (Eu) chelate-labeled cAMP tracer and cAMP-specific monoclonal antibodies (mAb) labelled with the ULight™ dye. […] IC50 values are determined from competition curves using a non-linear curve fitting program.

[1] = cited from earlier work
[2] = M3 Receptor radioligand binding assay, read-out: M3 IC50 Activity
[3] = PDE4B2 HTRF assay, read-out: PDE4B2 IC50 Activity
[4] = patients with severe disease, frequent exacerbations and mucus hypersecretion

Sequence of Human M3 receptor (P20309 whole entry): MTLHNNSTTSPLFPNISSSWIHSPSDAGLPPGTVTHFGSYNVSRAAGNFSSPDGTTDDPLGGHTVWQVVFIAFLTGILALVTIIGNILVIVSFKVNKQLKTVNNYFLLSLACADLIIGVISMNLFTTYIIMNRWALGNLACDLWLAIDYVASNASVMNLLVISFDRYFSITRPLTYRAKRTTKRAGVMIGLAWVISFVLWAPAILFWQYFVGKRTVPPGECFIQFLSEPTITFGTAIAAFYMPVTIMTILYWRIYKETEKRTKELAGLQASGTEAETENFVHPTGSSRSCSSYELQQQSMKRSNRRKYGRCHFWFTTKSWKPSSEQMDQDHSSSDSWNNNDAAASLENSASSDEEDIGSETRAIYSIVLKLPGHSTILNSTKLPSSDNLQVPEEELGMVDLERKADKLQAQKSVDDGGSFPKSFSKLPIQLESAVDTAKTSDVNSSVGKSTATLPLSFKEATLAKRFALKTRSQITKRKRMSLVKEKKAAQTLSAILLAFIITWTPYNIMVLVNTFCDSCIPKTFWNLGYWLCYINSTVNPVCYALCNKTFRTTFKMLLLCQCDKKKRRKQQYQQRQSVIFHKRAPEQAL

Row | SMILES | IC50 (Human M3 receptor; M3 IC50 Activity) | IC50 (Human recombinant PDE4B2) | IC50 (Human M3 receptor; [2]) | IC50 (Human recombinant PDE4B2; [3]) | also measured
1 | COc1ccc([C@H](Cc2c(Cl)c[n+]([O-])cc2Cl)OC(=O)c2ccc(CN3CCC(C(=O)O[C@H]4CN5CCC4CC5)(c4ccccc4)CC3)cc2)cc1OC [Example 11, [(3R)-quinuclidin-3-yl]-1-[[4-[(1S)-2-(3,5-dichloro-1-oxido-pyridin-1-ium-4-yl)-1-(3,4-dimethoxyphenyl)ethoxy]-carbonylphenyl]methyl]-4-phenyl-piperidine-4-carboxylate] | 10 to 100 nM | 1 to 10 nM | – | – | –
2 | COc1ccc([C@H](Cc2c(Cl)c[n+]([O-])cc2Cl)OC(=O)c2ccc(CCN3CCC(C(=O)O[C@H]4CN5CCC4CC5)(c4ccccc4)CC3)cc2)cc1OC [Example 12, [(3R)-quinuclidin-3-yl]-1-[2-[4-[(1S)-2-(3,5-dichloro-1-oxido-pyridin-1-ium-4-yl)-1-(3,4-dimethoxyphenyl)ethoxy]carbonylphenyl]ethyl]-4-phenyl-piperidine-4-carboxylate] | 1 to 10 nM | 1 to 10 nM | – | – | –
3 | COc1ccc([C@H](Cc2c(Cl)c[n+]([O-])cc2Cl)OC(=O)c2ccc(CN3CC(C(=O)O[C@@H]4CCN(C)C4)(c4ccccc4)C3)s2)cc1OC [Example 16, [(3R)-1-methylpyrrolidin-3-yl] 1-[[5-[(1S)-2-(3,5-dichloro-1-oxido-pyridin-1-ium-4-yl)-1-(3,4-dimethoxyphenyl)ethoxy]carbonyl-2-thienyl]methyl]-3-phenyl-azetidine-3-carboxylate] | – | – | 1 to 10 nM | 1 to 10 nM | –
4 | COc1ccc([C@H](Cc2c(Cl)c[n+]([O-])cc2Cl)OC(=O)c2ccc(CNCC(C(=O)OCCN(C)C)c3ccccc3)s2)cc1OC (stereo partly drawn) [Example 22, [(1S)-2-(3,5-dichloro-1-oxido-pyridin-1-ium-4-yl)-1-(3,4-dimethoxyphenyl)ethyl] 5-[[[3-(2-dimethylaminoethyloxy)-3-oxo-2-phenyl-propyl]amino]methyl]thiophene-2-carboxylate] | – | – | 1 to 10 nM | 1 to 10 nM | –
5 | COc1ccc([C@H](Cc2c(Cl)c[n+]([O-])cc2Cl)OC(=O)c2ccc(CNCC(C)(C(=O)OC3CCN(C)CC3)c3ccccc3)s2)cc1OC (stereo partly drawn) [Example 25, [(1S)-2-(3,5-dichloro-1-oxido-pyridin-1-ium-4-yl)-1-(3,4-dimethoxyphenyl)ethyl] 5-[[[2-methyl-3-[(1-methyl-4-piperidyl)oxy]-3-oxo-2-phenyl-propyl]amino]methyl]thiophene-2-carboxylate] | – | – | 10 to 100 nM | 1 to 10 nM | –
6 | COc1ccc([C@H](Cc2c(Cl)c[n+]([O-])cc2Cl)OC(=O)c2ccc(CN(C)CC(C)(C(=O)O[C@H]3CN4CCC3CC4)c3ccccc3)s2)cc1OC (stereo partly drawn) [Example 26, [(1S)-2-(3,5-dichloro-1-oxido-pyridin-1-ium-4-yl)-1-(3,4-dimethoxyphenyl)ethyl] 5-[[methyl-[2-methyl-3-oxo-2-phenyl-3-[(3R)-quinuclidin-3-yl]oxy-propyl]amino]methyl]thiophene-2-carboxylate] | – | – | – | – | IC50 (Human M3 receptor; read-out: M3 IC50 Activity): 1 to 10 nM; IC50 (Human recombinant PDE4B2; read-out: PDE4B2 IC50 Activity): 1 to 10 nM
7 | COc1ccc([C@H](Cc2c(Cl)c[n+]([O-])cc2Cl)OC(=O)c2ccc(CNCC(C)(C(=O)OCCN(C)C)c3ccccc3)s2)cc1OC (stereo partly drawn) [Example 29, [(1S)-2-(3,5-dichloro-1-oxido-pyridin-1-ium-4-yl)-1-(3,4-dimethoxyphenyl)ethyl] 5-[[[3-(2-dimethylaminoethyloxy)-2-methyl-3-oxo-2-phenyl-propyl]amino]methyl]thiophene-2-carboxylate] | – | – | 10 to 100 nM | 1 to 10 nM | –
8 | COc1ccc([C@H](Cc2c(Cl)c[n+]([O-])cc2Cl)OC(=O)c2ccc(CNCC(C)(C(=O)O[C@H]3CN4CCC3CC4)c3ccccc3)s2)cc1OC (stereo partly drawn) [Example 31, [(1S)-2-(3,5-dichloro-1-oxido-pyridin-1-ium-4-yl)-1-(3,4-dimethoxyphenyl)ethyl] 5-[[[2-methyl-3-oxo-2-phenyl-3-[(3R)-quinuclidin-3-yl]oxy-propyl]amino]methyl]thiophene-2-carboxylate] | 10 to 100 nM | 1 to 10 nM | – | – | –
9 | COc1ccc([C@H](Cc2c(Cl)c[n+]([O-])cc2Cl)OC(=O)c2ccc(CNC3CC(C(=O)OC4CCN(C)CC4)(c4ccccc4)C3)s2)cc1OC (stereo partly drawn) [Example 32, [(1S)-2-(3,5-dichloro-1-oxido-pyridin-1-ium-4-yl)-1-(3,4-dimethoxyphenyl)ethyl] 5-[[[3-[(1-methyl-4-piperidyl)oxycarbonyl]-3-phenyl-cyclobutyl]amino]methyl]-thiophene-2-carboxylate] | – | – | 10 to 100 nM | < 1 nM | –
10 | COc1ccc([C@H](Cc2c(Cl)c[n+]([O-])cc2Cl)OC(=O)c2ccc(CNC3CC(C(=O)O[C@H]4CN5CCC4CC5)(c4ccccc4)C3)s2)cc1OC (stereo partly drawn) [Example 33, [(1S)-2-(3,5-dichloro-1-oxido-pyridin-1-ium-4-yl)-1-(3,4-dimethoxyphenyl)ethyl] 5-[[[3-phenyl-3-[(3R)-quinuclidin-3-yl]oxycarbonyl-cyclobutyl]amino]methyl]thiophene-2-carboxylate] | 1 to 10 nM | 1 to 10 nM | – | – | –
11 | COc1ccc([C@H](Cc2c(Cl)c[n+]([O-])cc2Cl)OC(=O)c2ccc(CNC3CC(C(=O)O[C@H]4CN5CCC4CC5)(c4ccccc4)C3)s2)cc1OC (stereo partly drawn) [Example 37, [(1S)-2-(3,5-dichloro-1-oxido-pyridin-1-ium-4-yl)-1-(3,4-dimethoxyphenyl)ethyl] 5-[[[3-phenyl-3-[(3R)-quinuclidin-3-yl]oxycarbonyl-cyclobutyl]amino]methyl]thiophene-2-carboxylate] | – | – | – | – | IC50 (Human M3 receptor; read-out: M3 IC50 Activity): 1 to 10 nM; IC50 (Human recombinant PDE4B2; read-out: PDE4B2 IC50 Activity): 1 to 10 nM
12 | O=C(Nc1c(Cl)cncc1Cl)c1ccc(OC(F)F)c(OCC2CC2)c1 [roflumilast] | – | – | – | – | reduction of the numbers of neutrophils in sputum ([1]; COPD patients, oral, given over four weeks): 36%; improvement of FEV 1 [1, 4]: approximately 50 mL; reduction of exacerbation [1, 4]: about 15%
